Series [1] in a line: UV spectrophotometric analysis of compounds in solution. It is filed as physicochemical. To be noted: for ʎmax: 10 µg/mL solution, DMSO diluted in MeOH; for Ɛ (molar extinction coefficient): at ʎmax, Lambert–Beer equation. Here is the method: The synthesized compounds were solubilised in DMSO and diluted in MeOH, and the absorbance of the 10 µg/mL solution was measured between 290–400 nm with a UV-Vis spectrophotometer (SHIMADZU UV-2600 240 V, 1 cm quartz cell at 1 nm intervals). The absorbance at wavelength λ is related to the transmittance T(λ) via the Equation (1): A(λ) = −Log[T(λ)](1) where T(λ) is the fraction of incident irradiance transmitted by the sample. […]
The molar extinction coefficient was calculated with the absorbance recorded at the ʎmax applying the Lambert–Beer equation.

A short description of series [2]: In vitro filtering parameters of O/W sunscreen formulation on PMMA plates. The settings on record: 3% in O/W sunscreen formulation. As to the method:
Synthesized compounds were incorporated at 3% concentration in a suitable oil-in-water (O/W) emulsion for cosmetic use as sunscreen.
INCI: Aqua, Glycerin, Xanthan Gum, Phenoxyethanol (and) Ethylhexylglycerin, Tribehenin PEG-20 Esters, Cetearyl Alcohol, Dicaprylyl Carbonate, PPG 26 Buteth-26 (and) PEG 40 Hydrogenated Castor Oil, C12-15 Alkyl Benzoate, Sodium hydroxide (sol. 10%).
A protocol previously reported by us was adopted. Briefly, 32.5 mg of each compound formulation was spread on the rough surface of 5 × 5 cm^2 PMMA plates in the form of small drops of approximately equal mass, in triplicate. The plates were placed in the dark for 15–30 min to allow the formation of a sun-stabilised standard layer and then inserted into the instrument and measured at five different points on each plate (UV transmittance range 290–400 nm). The blank was a plate coated with 32.5 mg glycerine, chosen for its non-fluorescence and UV transparency. In addition, in vitro SPF, UVAPF and ʎc values were calculated according to Equations (2)–(4) above. To evaluate the booster effect of selected synthesized compounds, they were incorporated at 3% concentration in an oil-in-water (O/W) sunscreen formulation with fixed SPF and UVAPf values (30 and 10, respectively).
Aiming to create compounds with diverse biological activities, the synthesized 2-styrylbenzothiazoles were examined for potential applications in sunscreens. Each candidate was incorporated into a standard cosmetic formulation at a concentration of 3% and subjected to photoprotective efficacy testing using the Diffey–Robson method. The formulation comprised an oil-in-water (O/W) emulsion suitable for sunscreen use, with each benzothiazole derivative being heat-solubilized in the oil phase and then dispersed into the emulsion using a turbo emulsifier. The mixture was then cooled, and the emulsion was spread onto polymethylmethacrylate (PMMA) plates before recording the transmittance spectra. The SPF value, UVA protection factor value (UVAPF), the […], and the critical wavelength (λc) were determined from the transmittance spectra using SPF calculator software and are presented in Table 3. These parameters are essential for evaluating the efficacy of potential sunscreen products.

Series [3] concerns the target T1, Human recombinant 5-LO (Homo sapiens, UniProt P09917).
T1 construct: made in house
T1 sequence (P09917 1-674): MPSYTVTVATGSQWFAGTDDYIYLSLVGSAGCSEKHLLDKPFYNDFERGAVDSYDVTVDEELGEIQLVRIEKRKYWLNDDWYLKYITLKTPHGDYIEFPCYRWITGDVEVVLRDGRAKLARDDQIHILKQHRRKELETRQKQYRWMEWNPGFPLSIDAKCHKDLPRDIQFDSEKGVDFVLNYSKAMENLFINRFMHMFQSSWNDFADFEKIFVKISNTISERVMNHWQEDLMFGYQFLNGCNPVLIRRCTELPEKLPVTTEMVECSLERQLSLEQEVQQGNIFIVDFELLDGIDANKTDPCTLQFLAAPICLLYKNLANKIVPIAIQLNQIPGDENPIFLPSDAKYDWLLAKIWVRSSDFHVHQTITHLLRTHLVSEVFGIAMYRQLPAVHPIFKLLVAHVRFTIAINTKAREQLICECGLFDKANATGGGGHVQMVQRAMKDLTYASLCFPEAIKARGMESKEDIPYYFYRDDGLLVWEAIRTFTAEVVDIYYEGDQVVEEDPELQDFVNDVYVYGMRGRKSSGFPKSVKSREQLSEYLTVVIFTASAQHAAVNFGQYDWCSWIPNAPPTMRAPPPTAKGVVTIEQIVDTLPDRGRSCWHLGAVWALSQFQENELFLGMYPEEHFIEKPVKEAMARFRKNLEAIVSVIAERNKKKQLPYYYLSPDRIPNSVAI
The series can be described thus: 5-Lipoxygenase inhibition in a cell-free assay. Type of series: biochemical. To be noted: for remaining activity at 10 µM: % relative to vehicle (DMSO), read-out: 5-LO Residual Activity (Cell-Free, 10 µM); for IC50: isolated enzyme. As to the method: Human recombinant 5-LO was expressed and isolated as described before, and immediately used for activity assays after isolation. The 5-LO (0.5 µg, in 1 mL PBS pH 7.4 containing 1 mM EDTA) was pre-incubated with the test compounds for 10 min at 4 °C and pre-warmed for 30 s at 37 °C. 5-LO product formation was initiated by sequential addition of 1 mM CaCl2 and 20 μM arachidonic acid. After 10 min at 37 °C, the reaction was terminated by addition of 1 mL ice-cold methanol containing 200 ng PGB1 as internal standard. Formed 5-LO products (trans-LTB4, epi-trans-LTB4, and 5-HETE) were extracted using Sep-Pak C18 35 cc Vac Cartridges and analysed by UPLC-MS/MS as previously described.

Series [4] concerns PMNL. The series can be described thus: ROS production in PMA-stimulated PMNL. It is filed as cell-based, human. The settings on record: 10 µM; for ROS Production (% of Control): mean ± SD. Here is the method:
After 10 min at 37 °C, PMA (0.1 μM) was added. The fluorescence emission at 530 nm was measured after excitation at 485 nm in a thermally controlled (37 °C) NOVOstar microplate reader (BMG Lab technologies GmbH, Offenburg, Germany). […] ROS generation was induced by phorbol-12-myristate-13-acetate (PMA), a widely recognized agent for stimulating ROS production in neutrophils and enhancing endogenous superoxide formation. Diphenyleneiodonium (DPI, 10 µM), a NADPH oxidase inhibitor, served as a positive control. Through this assay, we could assess the potential interaction of our compounds with intracellular ROS production and their capacity to act as radical scavengers within a relevant cellular context. Furthermore, the outcomes provided additional insights into their inhibitory mechanism and helped to determine whether they act directly or non-specifically, as there is evidence that an impact on the ROS levels in PMNL could be translated to modulation of 5-LO activity in the cellular environment. […] With those data in hand, together with 5-LO inhibition assay outcomes, a direct inhibition of the enzyme stands as the best fitting option regarding the mechanism of action of compounds BZTst4 and BZTst6. […] This phenomenon was not further explored because such investigation was beyond the scope of this work.

Marks after values point to notes of the source that are not given here. Bounds are passed on as bounds.

For `COc1ccc(/C=C/c2nc3ccccc3s2)cc1O` [BZTst5, (E)-5-(2-(benzo[d]thiazol-2-yl)vinyl)-2-methoxyphenol], in series [1], the ʎmax was determined as 358.0 nm and the “Ɛ (molar extinction coefficient)” value is listed as 22,513.37 dm^3 mol^−1 cm^−1. In series [2], the SPF was determined as 2.91, the UVA/UVB stood at 0.93, the UVAPF is 2.70 and the “ʎc (critical wavelength)” value was determined as 384 nm. Further, in series [3], the remaining activity at 10 µM was 34.8 ± 18.4%. Also, in series [4], the “Effect on ROS production (in words)” value is listed as “do not display any significant interference” and the “ROS Production (% of Control)” value was 99.62 ± 4.14 % of control.

As to `C(=C\c1nc2ccccc2s1)/c1ccccc1` [BZTst1, (E)-2-styrylbenzo[d]thiazole], in series [1], the ʎmax was 335.0 nm and the “Ɛ (molar extinction coefficient)” value is reported as 34,075.83 dm^3 mol^−1 cm^−1. For the same compound, in series [2], the SPF amounted to 13.88, the UVA/UVB turned out to be 0.96, the UVAPF is recorded as 7.08 and the “ʎc (critical wavelength)” value worked out at 364 nm. For the same compound, in series [3], the remaining activity at 10 µM was 72 ± 20.4%. In addition, in series [4], the “Effect on ROS production (in words)” value is recorded as “do not display any significant interference” and the “ROS Production (% of Control)” value was 124.78 ± 17.88 % of control.

The term IC50 denotes the concentration at which inhibition is half-maximal. Regarding `Oc1ccc(/C=C/c2nc3ccccc3s2)cc1` [BZTst2, (E)-4-(2-(benzo[d]thiazol-2-yl)vinyl)phenol], in series [1], the ʎmax is reported as 354.4 nm and the “Ɛ (molar extinction coefficient)” value is recorded as 30,835.44 dm^3 mol^−1 cm^−1. In series [2], the SPF turned out to be 2.59, the UVA/UVB is 1.46, the UVAPF turned out to be 5.69 and the “ʎc (critical wavelength)” value turned out to be 384 nm. For the same compound, in series [3], the remaining activity at 10 µM is 47.3 ± 20.2% and the IC50 is 9260 nM. In series [4], the “Effect on ROS production (in words)” value was “unexpected rise in the ROS level” and the “ROS Production (% of Control)” value is >150% ^a % of control.

Consider `COc1cc(/C=C/c2nc3ccccc3s2)ccc1O` [BZTst6, (E)-4-(2-(benzo[d]thiazol-2-yl)vinyl)-2-methoxyphenol], for which, in series [1], the ʎmax is on record as 361.2 nm and the “Ɛ (molar extinction coefficient)” value is reported as 16,871.66 dm^3 mol^−1 cm^−1. Moreover, in series [2], the SPF stood at 3.43, the UVA/UVB was 1.96, the UVAPF amounted to 14.13 and the “ʎc (critical wavelength)” value came out at 388 nm. Further, in series [3], the remaining activity at 10 µM was found to be 6.84 ± 3.38% and the IC50 was 330 nM. Further, in series [4], the “Lowering of ROS production” value is on record as less than 50% and the “ROS Production (% of Control)” value is reported as 62.50 ± 5.62 % of control.

As for `Oc1ccc(/C=C/c2nc3ccccc3s2)cc1O` [BZTst4, (E)-4-(2-(benzo[d]thiazol-2-yl)vinyl)benzene-1,2-diol], in series [1], the ʎmax came out at 363.3 nm and the “Ɛ (molar extinction coefficient)” value is reported as 22,070.71 dm^3 mol^−1 cm^−1. In addition, in series [2], the SPF worked out at 3.87, the UVA/UVB stood at 1.47, the UVAPF amounted to 7.65 and the “ʎc (critical wavelength)” value is recorded as 389 nm. In series [3], the remaining activity at 10 µM was 6.85 ± 3.72% and the half-inhibitory concentration (IC50) is 50 nM. For the same compound, in series [4], the “Lowering of ROS production” value is reported as less than 50% and the “ROS Production (% of Control)” value is 53.81 ± 16.30 % of control.

Take `COc1ccc(/C=C/c2nc3ccccc3s2)cc1` [BZTst3, (E)-2-(4-methoxystyryl)benzo[d]thiazole]: in series [1], the ʎmax stood at 351.0 nm and the “Ɛ (molar extinction coefficient)” value is on record as 35,125.63 dm^3 mol^−1 cm^−1. Besides, in series [2], the SPF is 2.26, the UVA/UVB was 1.59, the UVAPF is given as 3.07 and the “ʎc (critical wavelength)” value amounted to 378 nm. In series [3], the remaining activity at 10 µM was determined as 46.7 ± 28.5%. In series [4], the “Effect on ROS production (in words)” value is recorded as “do not display any significant interference” and the “ROS Production (% of Control)” value was 108.70 ± 12.15 % of control.

For the origin of these results see article PMC11504387, “Synthesis and Biological Activity Assessment of 2-Styrylbenzothiazoles as Potential Multifunctional Therapeutic Agents” (Antioxidants, 2024).
